Data reported in patent US20200214999A1, “Method for Treating an Inflammatory Disorder” (Allianz Pharmascience Ltd., priority 2019, published 2020).

Columns and labels:
[1] = test system: IMQ-induced psoriatic inflammation; assay: IMQ-induced psoriatic inflammation model, #1 animal experiment (10 days); type: in vivo, Balb/c mice; details: for erythema, scaling, and thickness in lesional skins: photographic observation
Procedure: Balb/c mice were topical treated with imiquimod (IMQ) and with control cream, ASC-J9 or clobetasol for consecutive 10 days. (A) Schematic schedule was illustrated. Photographic observations in each group were shown at day 0 (B), day 5 (C) and day 10 (D).
Balb/c mice were topical treated with imiquimod (IMQ) and with control cream, ASC-J9 or clobetasol for consecutive 10 days. (A) The severity of inflammatory responses on the skin was assessed on the basis of the Psoriasis Area Severity Index. (B) Ten days after treatment, the mice were sacrificed and their skin thickness was measured with vernier caliper to assess the severity of the psoriatic responses. (C) Expession of cytokine genes in mouse skin after 10 day treatment by RT-qPCR. (D) H&E staining of lesional skin after 10 day treatment. *: p<0.05; **: […]; ns: not significant.
(§1) Animal Model of Psoriatic Inflammation: 30 or 40 mg of 5% IMQ gel (Aldara™) was smeared on the shaved backs of Balb/c mice each day for 5 or 10 days. The severity of the skin's inflammatory response was assessed on the basis of the Psoriasis Area Severity Index (PASI) as described. Briefly, the three parameters of psoriasis responses—erythema, scaling, and skin thickness—were scored independently on a scale from 0 to 4 as follows: 0: none; 1: slight; 2: moderate; 3: marked; and 4: very marked. By adding the scores from these three parameters, the severity of the response was measured using the cumulative score from 0 to 12. At the end of the experiment, the mice were sacrificed for measurement of skin thickness with vernier caliper. Group Assignments and Dose Levels of animal studies are described as follows:
(§2) The mice were (1) photoed for evaluation and analyzed (2) Psoriasis Area Severity Index (PASI); (3) Skin thickness measurement. We selected the sample in experiment with better inhibitory effect for further analysis by accessing: (1) H&E staining and (2) inflammatory gene expression including TNF-α, IL-1β, IL-17A, IL-22, IL-23 and IL-31 in lesional tissue by quantitative PCR (RT-qPCR).
We further evaluated anti-inflammatory effects of J9 on psoriatic inflammation in vivo. First, we compared the effects of J9 control cream, J9 cream and clobetasol on inhibition of IMQ-induced psoriatic inflammation in a 10-day experimental schedule (FIG. 5A). Mice of each group were photoed for evaluation at day 0, day 5 and day 10 (FIGS. 5B, 5C and 5D). […] In control cream group, there were no inhibitory effects observed (FIG. 5B). […] These phenomena were reached most severe at day 5 (FIGS. 5 and 6A). […] The skin thickness were measured at day 10. […] Expression of cytokine genes including TNF-α, IL-1β, IL-17A, IL-22, IL-23 and IL-31 in lesional skin were also analyzed. Of these cytokines, we observed that J9 attenuated IMQ-induced IL-1β expression at day 10 (FIG. 6C).

[2] = test system: inflammatory cytokine induced cytokine expression in dendritic cells (GMDC); assay: TNF-α or IL-1β induced cytokine expression in GMDC by RT-qPCR; type: cell-based, mouse; details: GMDC pre-treated 1 hr, then TNF-α or IL-1β for 24 hrs
Procedure: Dendritic cells were pre-treated with different concentration of ASC-J9 and ASC-JM17 for 1 hour and then inflammatory cytokine TNF-α or IL-1β were added for 24 hours. Expression of mouse cytokine genes was measured by RT-qPCR. *: p<0.05; ns: not significant.
(§3) Cell culture: Mouse bone marrow derived dendritic cells (BMDC) and bone marrow derived macrophages (BMDM) were generated from mouse bone marrow cells. Briefly, dendritic cells can be generated by two induction procedures. Bone marrow cells can be induced into myeloid DCs called GMDC with GM-CSF and IL-4 for 10 days, while a mixed types of DCs including myeloid and plasmacytoid DCs called Fit3DC can be generated by induction with fit3-ligand for 10 days. To generate BMDMs, bone marrow cells are induced into BMDM by 30% L929 conditioned medium for 7 days.
(§4) Analysis of gene expression: Total RNA was purified from cells using Isol-RNA Lysis Reagent (5 PRIME GmbH, Hilden, Germany) according to the manufacturer's protocol. Reverse-transcription was performed using the QuantiNova® Reverse Transcription Kit (QIAGEN™) and oligo-dT primers for first-strand cDNA synthesis. Quantitative PCR was performed with gene-specific primers (see appendix) using LightCycler480 detection system (Roche Diagnostics GmbH, Penzberg, Germany) and QuantiNova® SYBR Green RT-PCR Kit for gene expression analysis. The level of mRNA expression was normalized to that of GAPDH.
(§5) Anti-inflammatory effects of J9 and JM17 for inflammatory cytokine including TNF-α, IL-1β, IL-17A, IL-22, IL-23 and IL-31 induced by TLR ligand in various immune cells including mouse splenocytes, mouse bone marrow derived dendritic cells and bone marrow derived macrophages were analyzed by quantitative PCR (RT-qPCR).
To evaluate the anti-inflammatory effects of J9 and JM17 in vitro, GMDC were pre-treated with J9 and JM17 for 1 hr and stimulated with the inflammatory cytokine, TNF-α or IL-1β[…]for 24 hrs. Expression of cytokines including TNF-α, IL-1β, IL-17A, IL-22, IL-23, and IL-31 were measured by RT-qPCR. […] Expression of IL-17A was not induced by TNF-α or IL-1β. […]

[3] = test system: artemin (ARTN) expression in keloid patient derived fibroblasts 256K and 268K; assay: ARTN mRNA expression in keloid patient derived fibroblasts by qPCR; type: cell-based, human; details: keloid fibroblasts 256K and 268K, 24 hr treatment, mRNA by qPCR vs GAPDH
Procedure: Two keloid patient derived fibroblasts named 256K and 268K were treated with ASC-J9 for 24 hr. The cells were then harvested and mRNA expression of ARTN and GAPDH were determined by qPCR.

[4] = test system: IMQ-induced psoriatic inflammation; assay: IMQ-induced psoriatic inflammation model, #2 animal experiment (5 days); type: in vivo, Balb/c mice; details: for IMQ-induced inflammation: photographic observation
Procedure: Balb/c mice were topical treated with imiquimod (IMQ) and with control cream, different dose of ASC-J9 for consecutive 5 days. (A) Schematic schedule was illustrated. Photographic observations in each group were shown at day 0 (B), day 5 (C).
Balb/c mice were topical treated with imiquimod (IMQ) and with control cream, different dose of ASC-J9 for consecutive 5 days. (A) The severity of inflammatory responses on the skin was assessed on the basis of the Psoriasis Area Severity Index. (B) Five days after treatment, the mice were sacrificed and their skin thickness was measured with vernier caliper to assess the severity of the psoriatic responses. […]
as §1, §2
To further understand the therapeutic effects of different concentration of J9 cream, 0.5% J9 (2 mg/cm^2 and 6 mg/cm^2), 0.1% J9 (10 mg/cm^2) and 0.05% J9 cream(2 mg/cm^2) were used to evaluate therapeutic effects on IMQ-induced psoriatic inflammation in a five-day experimental schedule (FIG. 7A). Mice of each group were photoed for evaluation at day 0 and day 5 (FIGS. 7B and 7C). […] PASI score, skin thickness and gene expression of lesional skin were also measured.

[5] = test system: GMDC (mouse bone marrow derived myeloid dendritic cells); assay: MTS assay for cell viability (cytotoxicity) on GMDC; type: cell-based; details: 24 hours, 0 μM to 10 μM tested
Procedure: (§6) Cells were treated with different concentration of ASC-J9 and ASC-JM17 for 24 hours. Viability of cells were measured by MTS Assays. *: p<0.05.
(§7) MTS assay for cell viability: The cell toxicity of test articles is measured by MTS assay. The MTS assay is based on the reduction of the MTS tetrazolium compound by viable cells to generate a colored formazan dye that is soluble in cell culture media. This conversion is thought to be carried out by NAD(P)H-dependent dehydrogenase enzymes in metabolically active cells. The formazan dye is quantified by measuring the absorbance at 490-500 nm. The non-toxic dose will be applied for further assays.
as §3, with “To generate BMDMs, bone marrow cells are induced into BMDM by 30% L929 conditioned medium for 7 days.” left out
(§8) The goal of this example is to evaluate the anti-inflammatory abilities of J9 and JM17 on psoriatic inflammation in vitro and in vivo. To find the safety doses of J9 and JM17 for in vitro study, cytotoxicity of J9 and JM17 were measured by MTS assay. […]

[6] = test system: R848 induced cytokine expression in mouse bone marrow derived macrophages (BMDM); assay: R848 induced cytokine expression in bone marrow derived macrophages by RT-qPCR; type: cell-based; details: 1 μM pre-treatment 1 hour, R848 6 hours
Procedure: Macrophages were pre-treated with 1 μM of ASC-J9 or ASC-JM17 for 1 hour and then TLR ligand, R848 were added for 6 hours. Expression of mouse cytokine genes were measured by RT-qPCR. *: p<0.01; ns: not significant.
as §3, §4, §5
(§9) We also evaluate anti-inflammatory effects of J9 and JM17 on mouse splenocytes and bone marrow derived macrophages. Mouse splenocytes were pre-treated with J9 and JM17 for 1 hr and TLR ligand, R848, were then added for 6 hrs.

[7] = test system: Fit3DC (mouse bone marrow derived dendritic cells, fit3-ligand induced); assay: MTS assay for cell viability (cytotoxicity) on Fit3DC; type: cell-based; details: 24 hours, 0 μM to 10 μM tested
Procedure: as §6, §7
as §3, with “To generate BMDMs, bone marrow cells are induced into BMDM by 30% L929 conditioned medium for 7 days.” left out
as §8

[8] = test system: R848 induced cytokine expression in mouse splenocytes; assay: R848 induced cytokine expression in mouse splenocytes by RT-qPCR; type: cell-based; details: 1 μM pre-treatment 1 hr, R848 6 hrs
Procedure: Mouse splenocytes were pre-treated with 1 μM of ASC-J9 or ASC-JM17 for 1 hour and then TLR ligand, R848 were added for 6 hours. Expression of mouse cytokine genes were measured by RT-qPCR. *: p<0.01.
as §4, §5, §9

C[C@H]1C[C@H]2[C@@H]3CCC4=CC(=O)C=C[C@]4(C)[C@@]3(F)[C@@H](O)C[C@]2(C)[C@@]1(O)C(=O)CCl [clobetasol, reference compound]
skin thickness ([1]; clobetasol 0.05% 8 mg/cm^2, day 10, compared to sham control group): reduced skin thickness compared to sham control group | IMQ-induced erythema, scaling and increase of skin thickness in lesional skin ([1]; clobetasol 0.05% 8 mg/cm^2 topical daily, after 5 day treatment): strongly inhibited

COc1ccc(/C=C/C(=O)CC(=O)/C=C/c2ccc(OC)c(OC)c2)cc1OC [ASC-J9]
TNF-α or IL-1β induced IL-1β expression [2]: significantly inhibit | TNF-α or IL-1β induced IL-22 expression [2]: did not attenuate | TNF-α or IL-1β induced TNF-α expression [2]: significantly inhibit | artemin (ARTN) expression (pruritus marker) [3]: down-regulating | IMQ-induced expression of IL-1(3 in lesional skin) ([4]; 0.1% J9 10 mg/cm^2, RT-qPCR): inhibited | IMQ-induced expression of TNF-a in lesional skin ([4]; 0.1% J9 10 mg/cm^2, RT-qPCR): inhibited | IMQ-induced inflammation ([4]; 0.1% J9 10 mg/cm^2, after 5 day treatment): inhibited | PASI scores ([4]; 0.1% J9 10 mg/cm^2, at day 4 to day 5): marked decreased | IMQ-induced expression of IL-1(3 in lesional skin) ([4]; 0.5% J9 2 mg/cm^2, RT-qPCR): inhibited | IMQ-induced expression of TNF-a in lesional skin ([4]; 0.5% J9 2 mg/cm^2, RT-qPCR): inhibited | IMQ-induced inflammation ([4]; 0.5% J9 2 mg/cm^2, after 5 day treatment): inhibited | PASI scores ([4]; 0.5% J9 2 mg/cm^2, at day 4 to day 5): marked decreased | IMQ-induced expression of IL-1(3 in lesional skin) ([4]; 0.5% J9 6 mg/cm^2, RT-qPCR): inhibited | IMQ-induced expression of TNF-a in lesional skin ([4]; 0.5% J9 6 mg/cm^2, RT-qPCR): inhibited | IMQ-induced inflammation ([4]; 0.5% J9 6 mg/cm^2, after 5 day treatment): inhibited | PASI scores ([4]; 0.5% J9 6 mg/cm^2, at day 4 to day 5): marked decreased | non-toxic doses (cells resistant up to) [5]: up to 10 μM | R848-induced expression of IL-1β [6]: inhibited | R848-induced expression of IL-17A [6]: inhibited | R848-induced expression of IL-22 [6]: inhibited | R848-induced expression of IL-31 [6]: inhibited | R848-induced expression of TNF-α [6]: inhibited | non-toxic doses (cells resistant up to) [7]: up to 10 μM | R848 induced IL-1β expression [8]: significantly inhibited | R848 induced IL-17A expression [8]: significantly inhibited | R848 induced IL-22 expression [8]: significantly inhibited | R848 induced TNF-α expression [8]: significantly inhibited | erythema, scaling, and thickness in lesional skins ([1]; 0.5% J9 cream 2 mg/cm^2 topical daily, after 5 day treatment): significantly reduced | erythema, scaling, and thickness in lesional skins ([1]; 0.5% J9 cream 10 mg/cm^2 topical daily, after 5 day treatment): significantly reduced | IMQ-induced increase of skin thickness ([1]; J9 2 mg/cm^2, measured at day 10 with vernier caliper): significantly inhibited | Psoriasis Area Severity Index (PASI) score ([1]; J9 2 mg/cm^2 topical daily, at day 3 to day 10): significantly decreased | IMQ-induced increase of skin thickness ([1]; J9 10 mg/cm^2, measured at day 10 with vernier caliper): significantly inhibited | Psoriasis Area Severity Index (PASI) score ([1]; J9 10 mg/cm^2 topical daily, at day 4 to day 6): significantly decreased | IMQ-induced IL-1β expression in lesional skin ([1]; at day 10, RT-qPCR): attenuated | thickeness of the epidermis and dermis and keratinocyte proliferation in epidermis and inflammation (H&E staining) ([1]; lesional skin after 10 day treatment): reduced
